Source: patent US6355799B1, “Substituted benzene compounds, process for their preparation, and herbicidal and defoliant compositions containing them” (ISK Americas Incorporated, priority 1997, dated 2002)

How the values were obtained:
Assay type in all cases: in vivo
[1] = test system: johnsongrass (Sorghum halepense, SORHA); test: Post-emerge test, greenhouse herbicide activity screening; settings: rating scale 0-100 (0 no damage, 100 complete death), 14 days after application
How it was run: (§1)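 Sandy loam pots; pre-emerge: sown 1 d pre-spray, surface-watered after, then bottom-watered. Post-emerge: sown 8–21 d before, 2–3 leaf stage, + 0.25% v/v NIS, bottom-watered. Acetone, 187 l/ha track spray, 15–1000 g ai/ha. 0–100 injury score, day 14.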

[2] = test system: velvetleaf (Abutilon theophrasti, ABUTH); test: as above; settings: rating scale 0-100 (0 no damage, 100 complete death), 14 days after application
How it was run: as §1

[3] = test system: ivyleaf morningglory (Ipomoea hederacea, IPOHE); test: as above; settings: rating scale 0-100 (0 no damage, 100 complete death), 14 days after application
How it was run: as §1

[4] = test system: large crabgrass (Digitaria sanguinalis, DIGSA); test: as above; settings: rating scale 0-100 (0 no damage, 100 complete death), 14 days after application
How it was run: as §1

[5] = test system: redroot pigweed (Amaranthus retroflexus, AMARE); test: as above; settings: rating scale 0-100 (0 no damage, 100 complete death), 14 days after application
How it was run: as §1

[6] = test system: lambsquarters (Chenopodium album, CHEAL); test: as above; settings: rating scale 0-100 (0 no damage, 100 complete death), 14 days after application
How it was run: as §1

[7] = test system: sicklepod (Cassia obtusifolia, CASOB); test: as above; settings: rating scale 0-100 (0 no damage, 100 complete death), 14 days after application
How it was run: as §1

[8] = test system: green foxtail (Setaria viridis, SETVI); test: as above; settings: rating scale 0-100 (0 no damage, 100 complete death), 14 days after application
How it was run: as §1

[9] = test system: common ragweed (Ambrosia artemisizfolia L., AMBEL); test: as above; settings: rating scale 0-100 (0 no damage, 100 complete death), 14 days after application
How it was run: as §1

[10] = test system: barnyardgrass (Echinochloa crus-galli, ECHCG); test: as above; settings: rating scale 0-100 (0 no damage, 100 complete death), 14 days after application
How it was run: as §1

[11] = test system: redroot pigweed (Amaranthus retroflexus, AMARE); test: Pre-emerge test, greenhouse herbicide activity screening; settings: pre-emerge, 14 days after application, rating scale 0-100
How it was run: (§2)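 Rating: 0–100 visual injury, 14 DAA. Application: acetone, 187 l/ha, 15–1000 g ai/ha, flat-fan track sprayer with nozzle 40–45 cm above soil or canopy. Post-emerge runs used 0.25% v/v surfactant on 2–3 leaf plants.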

[12] = test system: field corn (Zea mays L., var. Dekalb 535, CORN); test: Post-emerge test, crop safety; settings: rating scale 0-100 (0 no damage, 100 complete death), 14 days after application
How it was run: (§3)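 Plants grown in 10 cm pots of sandy loam mix received acetone-dissolved compounds through a moving flat-fan nozzle. Doses ranged from 15 to 1000 g ai/ha. Pre-emerge pots were seeded one day earlier, post-emerge pots 8–21 days earlier. Fourteen days on, each pot was graded 0–100 for damage.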

[13] = test system: upland rice (Oryza sp., var. Tebonnet, RICE); test: Post-emerge test, crop safety; settings: rating scale 0-100 (0 no damage, 100 complete death), 14 days after application
How it was run: as §3

[14] = test system: johnsongrass (Sorghum halepense, SORHA); test: Pre-emerge test, greenhouse herbicide activity screening; settings: pre-emerge, 14 days after application, rating scale 0-100
How it was run: as §2

[15] = test system: velvetleaf (Abutilon theophrasti, ABUTH); test: as above; settings: pre-emerge, 14 days after application, rating scale 0-100
How it was run: as §2

[16] = test system: ivyleaf morningglory (Ipomoea hederacea, IPOHE); test: as above; settings: pre-emerge, 14 days after application, rating scale 0-100
How it was run: as §2

[17] = test system: large crabgrass (Digitaria sanguinalis, DIGSA); test: as above; settings: pre-emerge, 14 days after application, rating scale 0-100
How it was run: as §2

[18] = test system: lambsquarters (Chenopodium album, CHEAL); test: as above; settings: pre-emerge, 14 days after application, rating scale 0-100
How it was run: as §2

[19] = test system: sicklepod (Cassia obtusifolia, CASOB); test: as above; settings: pre-emerge, 14 days after application, rating scale 0-100
How it was run: as §2

[20] = test system: green foxtail (Setaria viridis, SETVI); test: as above; settings: pre-emerge, 14 days after application, rating scale 0-100
How it was run: as §2

[21] = test system: barnyardgrass (Echinochloa crus-galli, ECHCG); test: as above; settings: pre-emerge, 14 days after application, rating scale 0-100
How it was run: as §2

[22] = test system: field corn (Zea mays L., var. Dekalb 535, CORN); test: Pre-emerge test, crop safety; settings: pre-emerge, 14 days after application, rating scale 0-100
How it was run: (§4)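 Fourteen days after spraying, crop and weed injury was graded visually from 0, no effect, to 100, every plant dead. Test substances were dissolved in acetone and applied at 15–1000 g ai/ha with a flat-fan nozzle. Application was either pre-emergence, one day after sowing, or post-emergence at the 2–3 leaf stage.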

[23] = test system: upland rice (Oryza sp., var. Tebonnet, RICE); test: Pre-emerge test, crop safety; settings: pre-emerge, 14 days after application, rating scale 0-100
How it was run: as §4

COc1c(Cl)cc(F)c(-n2c(=O)cc(C(F)(F)F)n(C)c2=O)c1CC(C)(Cl)C(=O)OCC1CCCO1 (centres unmarked) [14-49]
Post-emerge Herbicidal Activity, phytotoxicity rating SORHA ([1]; Rate 63 g ai/ha): 70 | Post-emerge Herbicidal Activity, phytotoxicity rating SORHA ([1]; Rate 250 g ai/ha): 95 | Post-emerge Herbicidal Activity, phytotoxicity rating ABUTH ([2]; Rate 63 g ai/ha): 100 | Post-emerge Herbicidal Activity, phytotoxicity rating ABUTH ([2]; Rate 250 g ai/ha): 100 | Post-emerge Herbicidal Activity, phytotoxicity rating IPOHE ([3]; Rate 63 g ai/ha): 100 | Post-emerge Herbicidal Activity, phytotoxicity rating IPOHE ([3]; Rate 250 g ai/ha): 100 | Post-emerge Herbicidal Activity, phytotoxicity rating DIGSA ([4]; Rate 63 g ai/ha): 70 | Post-emerge Herbicidal Activity, phytotoxicity rating DIGSA ([4]; Rate 250 g ai/ha): 95 | Post-emerge Herbicidal Activity, phytotoxicity rating AMARE ([5]; Rate 63 g ai/ha): 100 | Post-emerge Herbicidal Activity, phytotoxicity rating AMARE ([5]; Rate 250 g ai/ha): 100 | Post-emerge Herbicidal Activity, phytotoxicity rating CHEAL ([6]; Rate 63 g ai/ha): 100 | Post-emerge Herbicidal Activity, phytotoxicity rating CHEAL ([6]; Rate 250 g ai/ha): 100 | Post-emerge Herbicidal Activity, phytotoxicity rating CASOB ([7]; Rate 63 g ai/ha): 70 | Post-emerge Herbicidal Activity, phytotoxicity rating CASOB ([7]; Rate 250 g ai/ha): 95 | Post-emerge Herbicidal Activity, phytotoxicity rating SETVI ([8]; Rate 63 g ai/ha): 50 | Post-emerge Herbicidal Activity, phytotoxicity rating SETVI ([8]; Rate 250 g ai/ha): 100 | Post-emerge Herbicidal Activity, phytotoxicity rating AMBEL ([9]; Rate 63 g ai/ha): 100 | Post-emerge Herbicidal Activity, phytotoxicity rating AMBEL ([9]; Rate 250 g ai/ha): 100 | Post-emerge Herbicidal Activity, phytotoxicity rating ECHCG ([10]; Rate 63 g ai/ha): 100 | Post-emerge Herbicidal Activity, phytotoxicity rating ECHCG ([10]; Rate 250 g ai/ha): 100 | phytotoxicity rating AMARE ([11]; 63 g ai/ha): 100 | phytotoxicity rating AMARE ([11]; 250 g ai/ha): 100 | Post-emerge phytotoxicity rating CORN (crop damage) ([12]; Rate 63 g ai/ha): 80 | Post-emerge phytotoxicity rating CORN (crop damage) ([12]; Rate 250 g ai/ha): 100 | Post-emerge phytotoxicity rating RICE (crop damage) ([13]; Rate 63 g ai/ha): 50 | Post-emerge phytotoxicity rating RICE (crop damage) ([13]; Rate 250 g ai/ha): 95 | phytotoxicity rating SORHA ([14]; 63 g ai/ha): 20 | phytotoxicity rating SORHA ([14]; 250 g ai/ha): 90 | phytotoxicity rating ABUTH ([15]; 63 g ai/ha): 100 | phytotoxicity rating ABUTH ([15]; 250 g ai/ha): 100 | phytotoxicity rating IPOHE ([16]; 63 g ai/ha): 50 | phytotoxicity rating IPOHE ([16]; 250 g ai/ha): 90 | phytotoxicity rating DIGSA ([17]; 63 g ai/ha): 50 | phytotoxicity rating DIGSA ([17]; 250 g ai/ha): 100 | phytotoxicity rating CHEAL ([18]; 63 g ai/ha): 100 | phytotoxicity rating CHEAL ([18]; 250 g ai/ha): 100 | phytotoxicity rating CASOB ([19]; 63 g ai/ha): 0 | phytotoxicity rating CASOB ([19]; 250 g ai/ha): 70 | phytotoxicity rating SETVI ([20]; 63 g ai/ha): 50 | phytotoxicity rating SETVI ([20]; 250 g ai/ha): 100 | phytotoxicity rating ECHCG ([21]; 63 g ai/ha): 0 | phytotoxicity rating ECHCG ([21]; 250 g ai/ha): 100 | phytotoxicity rating CORN ([22]; 63 g ai/ha): 10 | phytotoxicity rating CORN ([22]; 250 g ai/ha): 95 | phytotoxicity rating RICE ([23]; 63 g ai/ha): 40 | phytotoxicity rating RICE ([23]; 250 g ai/ha): 95

CCOC(=O)C(Cl)(C#N)Cc1c(OC)c(Cl)cc(F)c1-n1c(=O)cc(C(F)(F)F)n(C)c1=O (centres unmarked) [14-51]
Post-emerge Herbicidal Activity, phytotoxicity rating SORHA ([1]; Rate 63 g ai/ha): 0 | Post-emerge Herbicidal Activity, phytotoxicity rating SORHA ([1]; Rate 250 g ai/ha): 0 | Post-emerge Herbicidal Activity, phytotoxicity rating ABUTH ([2]; Rate 63 g ai/ha): 0 | Post-emerge Herbicidal Activity, phytotoxicity rating ABUTH ([2]; Rate 250 g ai/ha): 50 | Post-emerge Herbicidal Activity, phytotoxicity rating IPOHE ([3]; Rate 63 g ai/ha): 0 | Post-emerge Herbicidal Activity, phytotoxicity rating IPOHE ([3]; Rate 250 g ai/ha): 30 | Post-emerge Herbicidal Activity, phytotoxicity rating DIGSA ([4]; Rate 63 g ai/ha): 0 | Post-emerge Herbicidal Activity, phytotoxicity rating DIGSA ([4]; Rate 250 g ai/ha): 0 | Post-emerge Herbicidal Activity, phytotoxicity rating AMARE ([5]; Rate 63 g ai/ha): 0 | Post-emerge Herbicidal Activity, phytotoxicity rating AMARE ([5]; Rate 250 g ai/ha): 0 | Post-emerge Herbicidal Activity, phytotoxicity rating CHEAL ([6]; Rate 63 g ai/ha): 0 | Post-emerge Herbicidal Activity, phytotoxicity rating CHEAL ([6]; Rate 250 g ai/ha): 10 | Post-emerge Herbicidal Activity, phytotoxicity rating CASOB ([7]; Rate 63 g ai/ha): 0 | Post-emerge Herbicidal Activity, phytotoxicity rating CASOB ([7]; Rate 250 g ai/ha): 0 | Post-emerge Herbicidal Activity, phytotoxicity rating SETVI ([8]; Rate 63 g ai/ha): 0 | Post-emerge Herbicidal Activity, phytotoxicity rating SETVI ([8]; Rate 250 g ai/ha): 0 | Post-emerge Herbicidal Activity, phytotoxicity rating AMBEL ([9]; Rate 63 g ai/ha): 0 | Post-emerge Herbicidal Activity, phytotoxicity rating AMBEL ([9]; Rate 250 g ai/ha): 20 | Post-emerge Herbicidal Activity, phytotoxicity rating ECHCG ([10]; Rate 63 g ai/ha): 10 | Post-emerge Herbicidal Activity, phytotoxicity rating ECHCG ([10]; Rate 250 g ai/ha): 20 | phytotoxicity rating AMARE ([11]; 63 g ai/ha): 100 | phytotoxicity rating AMARE ([11]; 250 g ai/ha): 100 | Post-emerge phytotoxicity rating CORN (crop damage) ([12]; Rate 63 g ai/ha): 0 | Post-emerge phytotoxicity rating CORN (crop damage) ([12]; Rate 250 g ai/ha): 0 | Post-emerge phytotoxicity rating RICE (crop damage) ([13]; Rate 63 g ai/ha): 0 | Post-emerge phytotoxicity rating RICE (crop damage) ([13]; Rate 250 g ai/ha): 0 | phytotoxicity rating SORHA ([14]; 63 g ai/ha): 0 | phytotoxicity rating SORHA ([14]; 250 g ai/ha): 0 | phytotoxicity rating ABUTH ([15]; 63 g ai/ha): 10 | phytotoxicity rating ABUTH ([15]; 250 g ai/ha): 100 | phytotoxicity rating IPOHE ([16]; 63 g ai/ha): 0 | phytotoxicity rating IPOHE ([16]; 250 g ai/ha): 50 | phytotoxicity rating DIGSA ([17]; 63 g ai/ha): 0 | phytotoxicity rating DIGSA ([17]; 250 g ai/ha): 0 | phytotoxicity rating CHEAL ([18]; 63 g ai/ha): 90 | phytotoxicity rating CHEAL ([18]; 250 g ai/ha): 100 | phytotoxicity rating CASOB ([19]; 63 g ai/ha): 0 | phytotoxicity rating CASOB ([19]; 250 g ai/ha): 0 | phytotoxicity rating SETVI ([20]; 63 g ai/ha): 0 | phytotoxicity rating SETVI ([20]; 250 g ai/ha): 0 | phytotoxicity rating ECHCG ([21]; 63 g ai/ha): 0 | phytotoxicity rating ECHCG ([21]; 250 g ai/ha): 0 | phytotoxicity rating CORN ([22]; 63 g ai/ha): 0 | phytotoxicity rating CORN ([22]; 250 g ai/ha): 0 | phytotoxicity rating RICE ([23]; 63 g ai/ha): 0 | phytotoxicity rating RICE ([23]; 250 g ai/ha): 0
